One may read the CC50 as the concentration that lowers cell viability or growth by half. What is called MIC90 is an inhibitory concentration at the 90% level, which refers to growth in some studies and to a panel of isolates in others.

The text below walks through data of ChEMBL document CHEMBL3734709, “Design, synthesis and evaluation of diarylpiperazine derivatives as potent anti-tubercular agents” (Eur J Med Chem, 2015).

A short description of series [1]: Cytotoxicity against african green monkey Vero cells after 72 hrs by MTT assay. In kind it is cell-based. Conditions: chlorocebus sabaeus.
Series [2] in a line: Selectivity index, ratio of CC50 for african green monkey Vero cells to MIC for Mycobacterium tuberculosis H37Rv. Conditions: read-out: Selectivity Index. The series is classed as toxicity, cell-based.
For series [3], the system named is Mycobacterium tuberculosis. The series is described as follows: Antitubercular activity against Mycobacterium tuberculosis H37Rv measured on day 4 by microplate Alamar blue assay. The following applies: 96 h. The series is classed as functional. A general note: Alamar Blue is a resazurin reagent that responds to reducing activity.

Values after ≈ are worked out from the molar mass of the structure shown.

Regarding `Cn1c2ccccc2c2cc(C(=O)N3CCN(c4ccccc4)CC3)nc(-c3ccccc3)c21`, in series [1], the CC50 at 72 h was more than 50 mg/L. The selectivity ratio in series [2] was more than 4.1. The compound further returned an MIC90 in series [3] of 27.4 µM (≈ 12.2 µg/mL).
Regarding `Cc1ccc(N2CCN(C(=O)c3cc4c5ccccc5n(C)c4c(-c4ccccc4)n3)CC2)cc1`, the CC50 at 72 h in series [1] was more than 50 mg/L. The selectivity ratio in series [2] was more than 11.6. The compound also came in with an MIC90 in series [3] of 9.3 µM (≈ 4.28 µg/mL).
For `Cc1ccccc1N1CCN(C(=O)c2cc3c4ccccc4n(C)c3c(-c3ccccc3)n2)CC1`, the CC50 at 72 h in series [1] was more than 50 mg/L. Besides, the selectivity ratio in series [2] is more than 20.8. In series [3], the MIC90 came to 5.2 µM (≈ 2.4 µg/mL).
Turning to `COc1ccc(N2CCN(C(=O)c3cc4c5ccccc5n(C)c4c(-c4ccccc4)n3)CC2)cc1`, the CC50 at 72 h in series [1] is more than 50 mg/L. Further, in series [2], the selectivity ratio was more than 8.6. In series [3], this compound displayed an MIC90 of 10.1 µM (≈ 4.81 µg/mL).
In the case of `COc1ccccc1N1CCN(C(=O)c2cc3c4ccccc4n(C)c3c(-c3ccccc3)n2)CC1`, the CC50 at 72 h in series [1] was more than 50 mg/L. In addition, the selectivity ratio in series [2] was more than 25. The MIC90 in series [3] is 3.5 µM (≈ 1.67 µg/mL).
`Cn1c2ccccc2c2cc(C(=O)N3CCN(c4ccc(Cl)cc4)CC3)nc(-c3ccccc3)c21`: in series [1], the CC50 at 72 h was more than 50 mg/L. Besides, in series [2], the selectivity ratio was more than 1.3. The same compound showed an MIC90 in series [3] of 83.3 µM (≈ 40.1 µg/mL).
Taken in the same sequence, the figures for `Cn1c2ccccc2c2cc(C(=O)N3CCN(c4cccc(Cl)c4)CC3)nc(-c3ccccc3)c21` were more than 50 mg/L, more than 1.3 and 79.6 µM (≈ 38.3 µg/mL).
In series [1], `Cn1c2ccccc2c2cc(C(=O)N3CCN(c4ccccc4Cl)CC3)nc(-c3ccccc3)c21` came in with a CC50 at 72 h of more than 50 mg/L. In addition, the selectivity ratio in series [2] was more than 20.8. This compound also gave an MIC90 in series [3] of 5 µM (≈ 2.4 µg/mL).
In turn, `Cn1c2ccccc2c2cc(C(=O)N3CCN(c4ccc(F)cc4)CC3)nc(-c3ccccc3)c21` yielded a CC50 at 72 h in series [1] of more than 50 mg/L. For the same compound, the selectivity ratio in series [2] was more than 19.2. In addition, in series [3], the MIC90 was 5.6 µM (≈ 2.6 µg/mL).
Consider `Cn1c2ccccc2c2cc(C(=O)N3CCN(c4ccccc4F)CC3)nc(-c3ccccc3)c21`, for which the CC50 at 72 h in series [1] was more than 50 mg/L. Further, the selectivity ratio in series [2] is more than 18.5. In series [3], the MIC90 is 5.8 µM (≈ 2.69 µg/mL).
In series [1], `Cn1c2ccccc2c2cc(C(=O)N3CCN(c4cccc(Cl)c4Cl)CC3)nc(-c3ccccc3)c21` registered a CC50 at 72 h of more than 50 mg/L. Besides, the selectivity ratio in series [2] is more than 33.3. Further, in series [3], the MIC90 turned out to be 2.9 µM (≈ 1.49 µg/mL).
With `Cn1c2ccccc2c2cc(C(=O)N3CCN(Cc4ccccc4)CC3)nc(-c3ccccc3)c21`, the CC50 at 72 h in series [1] is more than 50 mg/L. For the same compound, the selectivity ratio in series [2] was more than 12.2. The compound further yielded an MIC90 in series [3] of 8.9 µM (≈ 4.1 µg/mL).
Consider `Cn1c2ccccc2c2cc(C(=O)N3CCN(c4ccncc4)CC3)nc(-c3ccccc3)c21`, for which the CC50 at 72 h in series [1] is 18 mg/L (≈ 40.2 µM). For the same compound, in series [2], the selectivity ratio was found to be 4.5. In series [3], this compound returned an MIC90 of 9.8 µM (≈ 4.39 µg/mL).
In turn, `Cn1c2ccccc2c2cc(C(=O)N3CCN(c4ccccn4)CC3)nc(-c3ccccc3)c21` came in with a CC50 at 72 h in series [1] of more than 50 mg/L. Moreover, in series [2], the selectivity ratio was more than 11.4. Moreover, in series [3], the MIC90 was 9.8 µM (≈ 4.39 µg/mL).
Consider `CO[C@H]1/C=C/O[C@@]2(C)Oc3c(C)c(O)c4c(O)c(c(/C=N/N5CCN(C)CC5)c(O)c4c3C2=O)NC(=O)/C(C)=C\C=C\[C@H](C)[C@H](O)[C@@H](C)[C@@H](O)[C@@H](C)[C@H](OC(C)=O)[C@@H]1C` [RIFAMPIN], for which, in series [1], the CC50 at 72 h is more than 150 mg/L. The selectivity ratio in series [2] was more than 1360. The same compound came in with an MIC90 in series [3] of 0.13 µM (≈ 0.107 µg/mL).
